Data reported in ChEMBL document CHEMBL5649166, “RIP3 induces apoptosis independent of pronecrotic kinase activity” (Mol Cell, 2014).

Assays:
[1] = molecular target: Fibroblast growth factor receptor 2 (Homo sapiens) (UniProt P21802); test: Inhibition of human FGFR2 using poly[Glu:Tyr] (4:1) as substrate at 1 uM in presence of 32P-ATP by Hotspot assay relative to control; values are per cent of control
[2] = molecular target: Leukocyte tyrosine kinase receptor (Homo sapiens) (UniProt P29376); test: Inhibition of human TYK1/LTK using EAIYAAPFAKKK as substrate at 1 uM in presence of 32P-ATP by Hotspot assay relative to control; values are per cent of control
[3] = molecular target: Serine/threonine-protein kinase SIK2 (Homo sapiens) (UniProt Q9H0K1); test: Inhibition of human SIK2 using AMARAASAAALARRR as substrate at 1 uM in presence of 32P-ATP by Hotspot assay relative to control
[4] = molecular target: T1, Mitogen-activated protein kinase kinase kinase 5 (Homo sapiens) (UniProt Q99683); test: Inhibition of human ASK1/MAP3K5 using myelin basic protein as substrate at 1 uM in presence of 32P-ATP by Hotspot assay relative to control; values are per cent of control
T1 sequence (whole entry): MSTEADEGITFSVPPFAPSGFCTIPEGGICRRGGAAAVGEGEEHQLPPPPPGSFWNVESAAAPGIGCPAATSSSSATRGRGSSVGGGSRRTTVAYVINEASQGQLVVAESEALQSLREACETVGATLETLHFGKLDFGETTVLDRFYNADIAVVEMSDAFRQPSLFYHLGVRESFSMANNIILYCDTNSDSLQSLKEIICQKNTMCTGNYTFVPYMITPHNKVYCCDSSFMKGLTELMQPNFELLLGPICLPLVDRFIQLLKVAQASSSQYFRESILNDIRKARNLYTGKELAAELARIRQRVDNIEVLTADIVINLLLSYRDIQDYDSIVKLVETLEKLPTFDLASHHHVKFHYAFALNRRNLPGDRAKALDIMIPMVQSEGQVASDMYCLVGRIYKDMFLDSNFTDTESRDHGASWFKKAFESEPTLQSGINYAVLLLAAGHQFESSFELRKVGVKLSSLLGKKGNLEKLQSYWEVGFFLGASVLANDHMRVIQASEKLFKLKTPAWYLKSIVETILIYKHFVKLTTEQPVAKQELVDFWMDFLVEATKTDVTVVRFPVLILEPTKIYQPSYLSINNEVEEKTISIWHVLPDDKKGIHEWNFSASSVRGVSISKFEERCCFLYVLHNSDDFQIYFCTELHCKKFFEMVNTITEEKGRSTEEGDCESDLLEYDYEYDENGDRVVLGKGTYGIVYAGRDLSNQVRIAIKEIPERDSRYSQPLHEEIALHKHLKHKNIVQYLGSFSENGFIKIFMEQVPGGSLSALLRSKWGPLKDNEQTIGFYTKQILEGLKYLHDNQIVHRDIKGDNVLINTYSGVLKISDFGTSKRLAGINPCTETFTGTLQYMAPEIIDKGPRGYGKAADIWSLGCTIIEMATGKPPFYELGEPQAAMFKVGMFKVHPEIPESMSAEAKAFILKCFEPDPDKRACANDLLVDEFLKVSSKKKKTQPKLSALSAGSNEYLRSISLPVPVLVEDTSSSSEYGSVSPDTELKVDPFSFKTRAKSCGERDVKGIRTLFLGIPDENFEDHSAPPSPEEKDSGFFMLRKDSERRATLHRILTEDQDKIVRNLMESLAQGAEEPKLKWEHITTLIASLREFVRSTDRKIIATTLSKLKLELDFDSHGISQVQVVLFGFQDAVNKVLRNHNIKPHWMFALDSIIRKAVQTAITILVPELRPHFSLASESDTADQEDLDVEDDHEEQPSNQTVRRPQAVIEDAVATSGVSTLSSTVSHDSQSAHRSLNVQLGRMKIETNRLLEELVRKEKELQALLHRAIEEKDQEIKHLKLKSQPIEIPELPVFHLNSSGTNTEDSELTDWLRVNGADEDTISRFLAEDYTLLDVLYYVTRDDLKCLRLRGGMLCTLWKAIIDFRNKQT

[5] = molecular target: Ephrin type-A receptor 5 (Homo sapiens) (UniProt P54756); test: Inhibition of human EPHA5 using poly[Glu:Tyr] (4:1) as substrate at 1 uM in presence of 32P-ATP by Hotspot assay relative to control; values are per cent of control
[6] = molecular target: Dual specificity protein kinase CLK1 (Homo sapiens) (UniProt P49759); test: Inhibition of human CLK1 using myelin basic protein as substrate at 1 uM in presence of 32P-ATP by Hotspot assay relative to control; values are per cent of control
[7] = molecular target: T2, Serine/threonine-protein kinase BRSK1 (Homo sapiens) (UniProt Q8TDC3); test: Inhibition of human BRSK1 using KKKVSRSGLYRSPSMPENLNRPR as substrate at 1 uM in presence of 32P-ATP by Hotspot assay relative to control; values are per cent of control
T2 sequence (whole entry): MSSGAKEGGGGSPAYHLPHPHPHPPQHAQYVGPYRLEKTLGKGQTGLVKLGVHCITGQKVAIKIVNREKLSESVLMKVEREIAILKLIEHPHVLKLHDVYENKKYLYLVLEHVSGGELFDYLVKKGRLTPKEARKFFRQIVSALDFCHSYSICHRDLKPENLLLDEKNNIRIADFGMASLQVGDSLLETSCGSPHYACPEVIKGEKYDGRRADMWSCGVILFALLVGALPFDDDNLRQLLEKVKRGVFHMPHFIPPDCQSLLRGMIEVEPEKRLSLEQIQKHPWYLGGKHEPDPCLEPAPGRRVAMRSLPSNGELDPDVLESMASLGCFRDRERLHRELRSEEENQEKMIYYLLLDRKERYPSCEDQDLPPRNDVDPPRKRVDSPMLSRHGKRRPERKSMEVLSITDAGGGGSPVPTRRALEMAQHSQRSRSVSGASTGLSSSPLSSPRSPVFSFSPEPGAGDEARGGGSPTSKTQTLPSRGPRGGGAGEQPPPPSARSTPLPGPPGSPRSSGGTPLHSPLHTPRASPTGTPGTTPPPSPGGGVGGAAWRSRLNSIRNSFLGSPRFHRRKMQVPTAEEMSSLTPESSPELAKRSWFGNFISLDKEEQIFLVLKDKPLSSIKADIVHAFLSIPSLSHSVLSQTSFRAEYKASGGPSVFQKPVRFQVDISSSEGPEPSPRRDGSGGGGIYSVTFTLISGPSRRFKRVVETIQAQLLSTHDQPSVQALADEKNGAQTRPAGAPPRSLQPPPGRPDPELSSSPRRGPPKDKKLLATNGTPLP

[8] = molecular target: Mitogen-activated protein kinase 11 (Homo sapiens) (UniProt Q15759); test: Inhibition of human P38b/MAPK11 using myelin basic protein as substrate at 1 uM in presence of 32P-ATP by Hotspot assay relative to control; values are per cent of control
Chain of Mitogen-activated protein kinase 11 (Homo sapiens) (Q15759 whole entry): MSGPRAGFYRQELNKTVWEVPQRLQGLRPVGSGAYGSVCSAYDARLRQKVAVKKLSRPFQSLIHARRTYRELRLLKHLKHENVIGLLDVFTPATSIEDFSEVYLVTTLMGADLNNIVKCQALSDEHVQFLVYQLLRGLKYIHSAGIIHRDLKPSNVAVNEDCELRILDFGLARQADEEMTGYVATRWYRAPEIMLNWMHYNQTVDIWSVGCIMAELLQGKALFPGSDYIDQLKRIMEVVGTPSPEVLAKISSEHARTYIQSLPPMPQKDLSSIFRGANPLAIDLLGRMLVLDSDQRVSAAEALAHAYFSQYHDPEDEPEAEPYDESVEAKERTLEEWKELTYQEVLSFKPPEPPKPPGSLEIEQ

Chain of Serine/threonine-protein kinase SIK2 (Homo sapiens) (Q9H0K1 whole entry, looked up): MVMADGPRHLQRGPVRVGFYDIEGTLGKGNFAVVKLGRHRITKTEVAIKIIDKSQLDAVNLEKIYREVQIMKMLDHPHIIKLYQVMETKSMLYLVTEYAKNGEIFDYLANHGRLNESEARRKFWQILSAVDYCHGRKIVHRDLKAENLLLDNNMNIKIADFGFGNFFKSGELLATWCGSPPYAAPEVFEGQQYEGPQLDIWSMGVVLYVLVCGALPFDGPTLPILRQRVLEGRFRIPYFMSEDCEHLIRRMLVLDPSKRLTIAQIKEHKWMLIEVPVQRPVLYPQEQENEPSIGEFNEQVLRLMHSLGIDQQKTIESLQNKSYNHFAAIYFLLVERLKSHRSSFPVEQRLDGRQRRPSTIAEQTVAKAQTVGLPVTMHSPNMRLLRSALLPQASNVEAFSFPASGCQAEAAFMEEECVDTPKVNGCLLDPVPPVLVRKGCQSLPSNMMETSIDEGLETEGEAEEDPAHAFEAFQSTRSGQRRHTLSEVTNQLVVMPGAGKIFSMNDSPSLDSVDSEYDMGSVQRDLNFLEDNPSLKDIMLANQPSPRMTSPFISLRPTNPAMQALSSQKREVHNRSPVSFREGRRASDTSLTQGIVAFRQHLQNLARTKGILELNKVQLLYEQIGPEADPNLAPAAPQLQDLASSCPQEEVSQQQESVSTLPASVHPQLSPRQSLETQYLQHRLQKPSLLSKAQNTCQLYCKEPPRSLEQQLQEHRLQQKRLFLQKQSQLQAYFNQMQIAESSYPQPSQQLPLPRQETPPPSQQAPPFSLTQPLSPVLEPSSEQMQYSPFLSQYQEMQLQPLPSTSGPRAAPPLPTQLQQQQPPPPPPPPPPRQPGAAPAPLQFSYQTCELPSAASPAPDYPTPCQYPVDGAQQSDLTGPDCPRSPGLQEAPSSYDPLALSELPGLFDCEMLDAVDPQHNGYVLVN
Chain of Leukocyte tyrosine kinase receptor (Homo sapiens) (P29376 whole entry): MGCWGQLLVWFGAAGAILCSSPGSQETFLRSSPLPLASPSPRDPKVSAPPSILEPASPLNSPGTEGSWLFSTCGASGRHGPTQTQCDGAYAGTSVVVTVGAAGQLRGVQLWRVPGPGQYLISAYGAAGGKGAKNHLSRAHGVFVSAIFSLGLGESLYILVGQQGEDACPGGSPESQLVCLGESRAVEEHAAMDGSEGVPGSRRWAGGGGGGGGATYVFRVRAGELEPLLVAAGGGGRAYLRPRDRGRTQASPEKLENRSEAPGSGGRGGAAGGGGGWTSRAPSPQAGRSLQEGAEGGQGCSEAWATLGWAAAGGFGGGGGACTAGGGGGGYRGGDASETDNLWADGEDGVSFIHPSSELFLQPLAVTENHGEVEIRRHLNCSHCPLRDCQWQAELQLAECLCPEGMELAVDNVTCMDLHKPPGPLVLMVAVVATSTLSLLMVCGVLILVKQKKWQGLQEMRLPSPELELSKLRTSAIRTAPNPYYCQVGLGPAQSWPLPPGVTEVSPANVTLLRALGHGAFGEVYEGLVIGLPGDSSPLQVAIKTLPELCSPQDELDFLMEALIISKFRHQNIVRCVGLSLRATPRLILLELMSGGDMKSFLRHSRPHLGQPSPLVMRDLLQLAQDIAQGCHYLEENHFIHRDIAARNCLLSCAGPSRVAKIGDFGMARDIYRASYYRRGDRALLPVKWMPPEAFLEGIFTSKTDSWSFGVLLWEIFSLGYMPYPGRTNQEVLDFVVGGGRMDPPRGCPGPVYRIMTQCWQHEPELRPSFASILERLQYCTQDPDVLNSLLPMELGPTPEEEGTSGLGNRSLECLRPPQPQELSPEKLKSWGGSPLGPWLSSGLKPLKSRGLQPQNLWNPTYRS
Chain of Fibroblast growth factor receptor 2 (Homo sapiens) (P21802 22-821 limits assumed): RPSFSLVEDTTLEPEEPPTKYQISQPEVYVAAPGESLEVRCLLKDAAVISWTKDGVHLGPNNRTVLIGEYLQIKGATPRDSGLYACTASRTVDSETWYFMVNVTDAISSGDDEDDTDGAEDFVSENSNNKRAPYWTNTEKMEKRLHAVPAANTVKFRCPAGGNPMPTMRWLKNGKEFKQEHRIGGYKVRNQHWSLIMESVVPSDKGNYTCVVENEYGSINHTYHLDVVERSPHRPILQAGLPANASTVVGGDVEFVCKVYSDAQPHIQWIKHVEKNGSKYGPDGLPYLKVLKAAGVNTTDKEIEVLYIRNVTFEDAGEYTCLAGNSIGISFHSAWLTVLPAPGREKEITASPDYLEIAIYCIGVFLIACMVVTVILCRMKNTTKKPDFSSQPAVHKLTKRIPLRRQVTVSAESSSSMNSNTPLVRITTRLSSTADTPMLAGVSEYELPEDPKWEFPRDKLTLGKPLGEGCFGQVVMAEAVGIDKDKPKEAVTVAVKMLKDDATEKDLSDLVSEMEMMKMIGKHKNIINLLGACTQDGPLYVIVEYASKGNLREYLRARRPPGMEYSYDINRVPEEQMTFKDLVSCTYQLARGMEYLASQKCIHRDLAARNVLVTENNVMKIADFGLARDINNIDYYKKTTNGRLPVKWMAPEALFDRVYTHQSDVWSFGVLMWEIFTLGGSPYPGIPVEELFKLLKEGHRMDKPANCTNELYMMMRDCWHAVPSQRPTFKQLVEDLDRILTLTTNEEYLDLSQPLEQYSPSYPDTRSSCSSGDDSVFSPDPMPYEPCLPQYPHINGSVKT
Chain of Dual specificity protein kinase CLK1 (Homo sapiens) (P49759 whole entry, looked up): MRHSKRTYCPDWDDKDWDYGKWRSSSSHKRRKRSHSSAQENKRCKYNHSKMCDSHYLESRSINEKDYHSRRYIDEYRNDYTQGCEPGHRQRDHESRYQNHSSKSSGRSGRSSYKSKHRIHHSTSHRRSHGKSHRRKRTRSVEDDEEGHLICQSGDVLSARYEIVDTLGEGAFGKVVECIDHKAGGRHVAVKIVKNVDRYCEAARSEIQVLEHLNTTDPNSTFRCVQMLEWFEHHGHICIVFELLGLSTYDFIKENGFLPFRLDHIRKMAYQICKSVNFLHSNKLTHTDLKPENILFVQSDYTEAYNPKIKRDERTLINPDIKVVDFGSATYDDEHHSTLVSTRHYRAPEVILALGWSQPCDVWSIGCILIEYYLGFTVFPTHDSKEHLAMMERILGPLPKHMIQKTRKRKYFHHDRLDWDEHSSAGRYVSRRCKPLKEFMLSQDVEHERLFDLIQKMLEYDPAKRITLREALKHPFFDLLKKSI
Chain of Ephrin type-A receptor 5 (Homo sapiens) (P54756 whole entry): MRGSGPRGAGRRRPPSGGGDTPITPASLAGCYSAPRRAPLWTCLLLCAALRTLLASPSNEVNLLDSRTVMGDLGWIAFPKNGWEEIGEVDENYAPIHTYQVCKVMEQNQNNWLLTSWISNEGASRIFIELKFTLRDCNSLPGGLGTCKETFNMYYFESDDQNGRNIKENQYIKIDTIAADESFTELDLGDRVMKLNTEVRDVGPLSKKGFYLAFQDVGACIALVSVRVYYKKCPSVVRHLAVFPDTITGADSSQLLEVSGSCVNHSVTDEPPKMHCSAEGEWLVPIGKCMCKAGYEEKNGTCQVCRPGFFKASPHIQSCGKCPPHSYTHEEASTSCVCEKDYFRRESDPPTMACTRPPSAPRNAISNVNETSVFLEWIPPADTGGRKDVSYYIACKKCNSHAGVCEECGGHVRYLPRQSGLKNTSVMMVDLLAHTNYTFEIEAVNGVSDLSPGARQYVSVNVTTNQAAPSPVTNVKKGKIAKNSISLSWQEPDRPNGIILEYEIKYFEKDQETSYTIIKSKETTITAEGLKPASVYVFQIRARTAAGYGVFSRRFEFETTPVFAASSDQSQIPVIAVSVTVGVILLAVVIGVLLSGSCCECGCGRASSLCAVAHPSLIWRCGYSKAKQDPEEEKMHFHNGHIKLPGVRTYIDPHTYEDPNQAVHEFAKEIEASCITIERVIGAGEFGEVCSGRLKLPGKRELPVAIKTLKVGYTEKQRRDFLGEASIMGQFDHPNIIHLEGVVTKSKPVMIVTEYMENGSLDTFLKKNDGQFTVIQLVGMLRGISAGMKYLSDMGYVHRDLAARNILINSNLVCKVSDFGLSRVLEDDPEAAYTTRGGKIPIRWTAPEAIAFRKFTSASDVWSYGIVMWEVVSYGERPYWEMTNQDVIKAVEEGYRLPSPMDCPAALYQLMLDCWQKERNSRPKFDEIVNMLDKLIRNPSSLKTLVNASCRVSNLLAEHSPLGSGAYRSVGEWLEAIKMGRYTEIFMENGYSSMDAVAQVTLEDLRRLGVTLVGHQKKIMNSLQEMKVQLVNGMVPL

| SMILES | residual activity [1] [%] | residual activity [2] [%] | inhibition [3] [%] | residual activity [4] [%] | residual activity [5] [%] | residual activity [6] [%] | residual activity [7] [%] | residual activity [8] [%] |
| --- | --- | --- | --- | --- | --- | --- | --- | --- |
| CC(C)S(=O)(=O)c1ccc2nccc(Nc3ccc4scnc4c3)c2c1 | 73.7 | 98.3 | 93.1 | 97.6 | 70.6 | 97.6 | 101 | 102 |
| Cc1cc(-c2cnc(N)c3c(-c4ccc5scnc5c4)csc23)n(C)n1 | 61.7 | 73.8 | 92 | 102 | 53.4 | 74.7 | 101 | 37.8 |
| CNC(=O)c1ccc2c(c1)ncn2-c1ccc(CC(=O)OC(C)(C)C)cc1 | 66.7 | 101 | 93.2 | 96.7 | 96.7 | 95.4 | 96.6 | 97.1 |
